Results: patent US20020045595A1, “N6 heterocyclic 8-modified adenosine derivatives” (priority 1999, published 2002)

Tests used:
A1 AdoR = target: T1, A1 AdoR (Mesocricetus auratus, UniProt A0A1U8BVR4); assay: A1-agonist stimulated [35S]GTPγS binding assay, DDT1 membranes; format: biochemical, hamster; conditions: [35S]GTPγS binding normalized to the full agonist CPA
T1 construct: endogenous in cells; host or cells: DDT1 (DDT) hamster vas deferens smooth muscle cells, membrane preparation
T1 sequence (A0A1U8BVR4 1-326): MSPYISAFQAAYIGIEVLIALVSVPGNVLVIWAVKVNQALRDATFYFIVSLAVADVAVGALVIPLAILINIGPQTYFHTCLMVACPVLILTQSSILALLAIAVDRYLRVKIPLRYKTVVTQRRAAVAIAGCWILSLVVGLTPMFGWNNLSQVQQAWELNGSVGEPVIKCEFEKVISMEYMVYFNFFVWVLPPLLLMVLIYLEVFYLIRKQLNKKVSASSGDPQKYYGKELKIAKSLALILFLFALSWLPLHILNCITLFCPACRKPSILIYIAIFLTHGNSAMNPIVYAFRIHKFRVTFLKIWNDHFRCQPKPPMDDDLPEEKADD
Method: (§1) DDT cells (hamster vas deferens smooth muscle cell line) were grown as monolayers in petri dishes using Dulbecco's Modified Eagle's Medium (DMEM) containing 2.5 μg ml^−1 amphotericin B, 100 U ml^−1 penicillin G, 0.1 mg ml^−1 streptomycin sulfate and 5% fetal bovine serum in a humidified atmosphere of 95% air and 5% CO2. Cells were subcultured twice weekly by dispersion in Hank's Balanced Salt Solution (HBSS) without the divalent cations and containing 1 mM EDTA. The cells were then seeded in growth medium at a density of […] per plate and experiments were performed 4 days later at approximately one day preconfluence.
Attached cells were washed twice with HBSS (2×10 ml), scraped free of the plate with the aid of a rubber policeman in 5 ml of 50 mM Tris-HCl buffer pH 7.4 at 4° C. and the suspension homogenized for 10 s. The suspension was then centrifuged at 27,000 x g for 10 min. The pellet was resuspended in homogenization buffer by vortexing and centrifuged as described above. The final pellet was resuspended in 1 vol of 50 mM Tris-HCl buffer pH 7.4 containing 5 mM MgCl2 for A1 AdoR assays. For the [^35S]GTPγS binding assay the final pellet was resuspended in 50 mM Tris-HCl pH 7.4 containing 5 mM MgCl2, 100 mM NaCl and 1 mM dithiothreitol. This membrane suspension was then placed in liquid nitrogen for 10 min, thawed and used for assays. The protein content was determined with a Bradford™ Assay Kit using bovine serum albumin as standard.
A1-agonist stimulated [^35S] GTPγS binding was determined by a modification of the method described by Giersckik et al. (1991) and Lorenzen et al. (1993). […] Nonspecific binding was determined by the addition of 10 μM GTPγS. […] Previous reports have shown that agonist stimulated [^35S]GTPγS binding was dependent on the presence of GDP (Gierschik et al., 1991; Lorenzen et al., 1993; Traynor & Nahorski, 1995). […] In saturation experiments, 0.5 nM [^35S]GTPγS was incubated with 0.5-1000 nM GTPγS. At the end of the incubation, each suspension was filtered and the retained radioactivity determined as described above.

[1] = system: A1 adenosine receptor (DDT1 cells); assay: cAMP assay (SPA) in DDT1 cells with forskolin; format: cell-based, hamster; conditions: 5 μM forskolin; for cAMP: rolipram 50 μM, normalized to the full agonist CPA
Method: as §1
A scintillation proximity assay (SPA) using rabbit antibodies directed at cAMP using an added tracer of adenosine 3′,5′-cyclic phosphoric acid 2′-O-succinyl-3-[^125I] iodotyrosine methyl ester and fluoromicrospheres containing anti-rabbit specific antibodies as described by Amersham Pharmacia Biotech (Biotrak cellular communication assays). Briefly, DDT1 cells were cultured in clear bottomed 96 well microtiter plates with opaque wells at concentrations between 10^4 to 10^6 cells per well in 40 μl of HBSS at 37° C. (5% CO2 and 95% humidity). The partial or full A1 agonists (5 μl )of this invention were incubated at various concentrations with the DDT1 cells in the presence of rolipram (50 μM), and 5 μM forskolin for 10 min at 37° C. The cells were immediately lysed by treatment 5 μl of 10% dodecyltrimethylammonium bromide followed by shaking using microplate shaker. After incubation of the plate for 5 minutes, an immunoreagent solution (150 μl containing equal volumes of tracer, antiserum, and SPA fluorospheres) was added to each well followed by sealing the plate. After 15-20 h at 23° C., the amount of bound [^125I] cAMP to the fluoromicrospheres was determined by counting in a microtitre plate scintillation counter for 2 minutes. Comparison of counts with standard curves generated for cAMP using a similar protocol afforded the cAMP present after cell lysis.

A1 receptor = target: T2, A1 receptor (Sus scrofa, UniProt I3LEN5); assay: Competitive binding assay, pig striatum membranes, [3H]CPX; conditions: pig striatum membrane prep, antagonist [3H]CPX 2 nM
T2 sequence (I3LEN5 1-326): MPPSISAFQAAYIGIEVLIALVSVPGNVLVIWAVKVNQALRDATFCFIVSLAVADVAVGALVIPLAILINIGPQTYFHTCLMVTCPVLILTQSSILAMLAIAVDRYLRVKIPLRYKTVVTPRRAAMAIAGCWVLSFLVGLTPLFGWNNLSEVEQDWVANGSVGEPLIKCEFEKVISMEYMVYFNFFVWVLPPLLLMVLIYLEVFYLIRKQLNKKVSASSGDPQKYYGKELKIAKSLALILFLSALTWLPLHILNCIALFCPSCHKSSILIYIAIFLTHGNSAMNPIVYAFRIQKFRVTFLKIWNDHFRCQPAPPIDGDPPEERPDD
Method: Pig striatum were prepared by homogenation in 50 mM Tris buffer ( 5x volume of tissue mass pH=7.4). After centrifugation at 19,000 rpm for 25 minutes at 4° C., the supernatant was discarded, and the process was repeated twice. Compositions of this invention were assayed to determine their affinity for the A1 receptor in a pig striatum membrane prep or a DDT1 membrane prep. Briefly, 0.2 mg of pig striatal membranes or DDT1 cell membranes were treated with adenosine deaminase and 50 mM Tris buffer (pH=7.4) followed by mixing. To the pig membranes was added 2 μL of serially diluted DMSO stock solution of the compounds of this invention at concentrations ranging from 100 microM to 10 nM. The control received 2 microL of DMSO alone, then the antagonist [^3H] 8-cyclopentylxanthine (CPX) for pig striatum or the agonist [3H] 2-chloro-6-cyclopentyladenosine (CCPA) for DDT1 membranes in Tris buffer (50 mM, pH of 7.4) was added to achieve a final concentration of 2 nM. After bation at 23 C. for 2 h, then the solutions were filtered using a membrane harvester using iple washing of the membranes (3 x). The filter disks were counted in scintillation cocktail rding the amount of displacement of tritiated CPX or by the competitive binding ositions of this invention. Greater than a 5 point curve was used to generate Ki's and the er of experiments is indicated in the column marked in Table 1, below: […]

GIPγS (A1 AdoR)	Ki (A1 receptor)	SMILES	cAMP [1]	forskolin induced cAMP generation [1]
68%	–	CC(C)Nc1nc2c(N[C@@H]3CCOC3)ncnc2n1[C@@H]1O[C@H](CO)[C@@H](O)[C@H]1O [Compound 11, 2-{6-[((3 R)oxolan-3-yl)amino]-8-[(methylethyl)amino]purin-9-yl}(4 S,2 R,3 R,5 R)-5-(hydroxymethyl)oxolane-3,4-diol]	37%	–
–	0.799 µM	CNc1nc2c(NC3CCOC3)ncnc2n1C1OC(CO)C(O)C1O (stereo not drawn) [Compound 7]	–	–
–	7.47 µM	OC[C@H]1O[C@@H](n2c(NCc3ccccc3)nc3c(N[C@@H]4CCOC4)ncnc32)[C@H](O)[C@@H]1O [Compound 10, 2-{6-[((3 R)oxolan-3-yl)amino]-8-[benzylamino]purin-9-yl}(4 S,2 R,3 R,5 R)-5-(hydroxymethyl)oxolane-3,4-diol]	–	–
–	1.04 µM	CCCNc1nc2c(N[C@@H]3CCOC3)ncnc2n1[C@@H]1O[C@H](CO)[C@@H](O)[C@H]1O [Compound 8, 2-{6-[((3 R)oxolan-3-yl)amino]-8-(propylamino)purin-9-yl}(4 S,2 R,3 R,5 R)-5-(hydroxymethyl)oxolane-3,4-diol]	–	–
–	2.84 µM	CCCCNc1nc2c(N[C@@H]3CCOC3)ncnc2n1[C@@H]1O[C@H](CO)[C@@H](O)[C@H]1O [Compound 9, 2-{6-[((3 R)oxolan-3-yl)amino]-8-(butylamino)purin-9-yl}(4S,2 R,3 R,5 R)-5-(hydroxymethyl)oxolane-3,4-diol]	–	–
–	–	OC[C@H]1O[C@@H](n2cnc3c(NC4CCCC4)ncnc32)[C@H](O)[C@@H]1O [CPA, N-6-cyclopentyladenosine, reference compound]	100%	back to basal levels
77%	–	C=CCNc1nc2c(N[C@@H]3CCOC3)ncnc2n1[C@@H]1O[C@H](CO)[C@@H](O)[C@H]1O [Compound 12, 2-{6-[((3 R)oxolan-3-yl)amino]-8-(prop-2-enylamino)purin-9-yl}(4 S,2 R,3 R,5 R)-5-(hydroxymethyl)oxolane-3,4-diol]	42%	–
89%	0.137 µM	CCNc1nc2c(N[C@@H]3CCOC3)ncnc2n1[C@@H]1O[C@H](CO)[C@@H](O)[C@H]1O [Compound 5, 2-{6-[((3 R)oxolan-3-yl)amino]-8-(ethylamino)purin-9-yl}(4 S,2 R,3 R,5 R)-5-(hydroxymethyl)oxolane-3,4-diol]	–	–
